Assay: xn = mol fraction of the nth substance listed
Settings: 101 kPa

CCCCCCCCCCCCCC[n+]1ccccc1.O=C([O-])C(O)c1ccccc1 + NCC(=O)NCC(=O)O + O
electrical conductivity [S/m]
Settings | 303.15 K | 308.15 K | 313.15 K
x1 = 5.26e-06, x2 = 0.0009002 | – | 0.00433 | 0.005
x1 = 6.01e-06, x2 = 0.001799 | – | 0.0066 | 0.0077
x1 = 6.85e-06, x2 = 0 | – | 0.0034 | 0.0037
x1 = 9.97e-06, x2 = 0.0009002 | – | 0.0061 | 0.0069
x1 = 1.185e-05, x2 = 0.001799 | – | 0.0088 | 0.01
x1 = 1.424e-05, x2 = 0 | – | 0.0065 | 0.0071
x1 = 1.486e-05, x2 = 0.0009002 | – | 0.008 | 0.009
x1 = 1.713e-05, x2 = 0.001799 | – | 0.0107 | 0.0122
x1 = 2.084e-05, x2 = 0.0009002 | – | 0.0102 | 0.0114
x1 = 2.126e-05, x2 = 0 | – | 0.0093 | 0.0101
x1 = 2.26e-05, x2 = 0.001799 | – | 0.0128 | 0.0144
x1 = 2.537e-05, x2 = 0.0009002 | – | 0.012 | 0.0134
x1 = 2.788e-05, x2 = 0.001799 | – | 0.0146 | 0.0165
x1 = 2.811e-05, x2 = 0 | – | 0.0122 | 0.0131
x1 = 3.117e-05, x2 = 0.0009002 | – | 0.014 | 0.0157
x1 = 3.335e-05, x2 = 0.001799 | – | 0.0164 | 0.0184
x1 = 3.46e-05, x2 = 0 | – | 0.0145 | 0.0157
x1 = 3.679e-05, x2 = 0.0009002 | – | 0.0159 | 0.0178
x1 = 3.864e-05, x2 = 0.001799 | – | 0.018 | 0.0203
x1 = 4.108e-05, x2 = 0 | 0.0146 | 0.0161 | 0.0179
x1 = 4.386e-05, x2 = 0.0009001 | 0.0157 | 0.0177 | 0.0199
x1 = 4.574e-05, x2 = 0.001799 | 0.0174 | 0.0197 | 0.0222
x1 = 4.811e-05, x2 = 0 | 0.0161 | 0.0179 | 0.0198
x1 = 5.11e-05, x2 = 0.0009001 | 0.017 | 0.0192 | 0.0215
x1 = 5.321e-05, x2 = 0.001799 | 0.0187 | 0.0213 | 0.024
x1 = 5.388e-05, x2 = 0 | 0.0172 | 0.0191 | 0.0211
x1 = 5.781e-05, x2 = 0.0009001 | 0.0182 | 0.0205 | 0.023
x1 = 5.982e-05, x2 = 0 | 0.0182 | 0.0202 | 0.0224
x1 = 6.069e-05, x2 = 0.001799 | 0.02 | 0.0227 | 0.0254
x1 = 6.433e-05, x2 = 0.0009001 | 0.0193 | 0.0218 | 0.0244
x1 = 6.559e-05, x2 = 0 | 0.0192 | 0.0213 | 0.0236
x1 = 6.816e-05, x2 = 0.001799 | 0.0213 | 0.024 | 0.027
x1 = 7.081e-05, x2 = 0 | 0.02 | 0.0223 | 0.0246
x1 = 7.104e-05, x2 = 0.0009001 | 0.0204 | 0.023 | 0.0258
x1 = 7.454e-05, x2 = 0.001799 | 0.0222 | 0.0252 | 0.0283
x1 = 7.604e-05, x2 = 0 | 0.0209 | 0.0232 | 0.0258
x1 = 7.81e-05, x2 = 0.0009001 | 0.0217 | 0.0244 | 0.0273
x1 = 8.072e-05, x2 = 0 | 0.0217 | 0.0241 | 0.0266
x1 = 8.128e-05, x2 = 0.001799 | 0.0233 | 0.0265 | 0.0298
